Assay results: ChEMBL document CHEMBL1201861, “Genomics of Drug Sensitity in Cancer screening data, Wellcome Trust Sanger Institute”

Columns and labels:
Test in all cases: cells
[1] = test system: CP66-MEL; format: functional, cell-based, Homo sapiens; details: Homo sapiens, CP66-MEL;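 note: growth inhibition of CP66-MEL cells determined in a cell viability assay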
Description: SANGER: Inhibition of human CP66-MEL cell growth in a cell viability assay.

[2] = test system: D-502MG; format: functional, cell-based, Homo sapiens; details: Homo sapiens, D-502MG
Description: SANGER: Inhibition of human D-502MG cell growth in a cell viability assay.

[3] = test system: DB; format: functional, cell-based; details: Homo sapiens
Description: SANGER: Inhibition of human DB cell growth in a cell viability assay.

[4] = test system: DMS-273; format: functional, cell-based, Homo sapiens; details: Homo sapiens, DMS-273
Description: SANGER: Inhibition of human DMS-273 cell growth in a cell viability assay.

[5] = test system: ES6; format: functional, cell-based, Homo sapiens; details: Homo sapiens, ES6;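 note: growth inhibition of human ES6 cells, read out with a cell viability assay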
Description: SANGER: Inhibition of human ES6 cell growth in a cell viability assay.

[6] = test system: ESS-1; format: functional, cell-based, Homo sapiens; details: Homo sapiens, ESS-1;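 note: growth inhibition of human ESS-1 cells, read out by a cell viability assay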
Description: SANGER: Inhibition of human ESS-1 cell growth in a cell viability assay.

[7] = test system: H4; format: functional, cell-based; details: Homo sapiens
Description: SANGER: Inhibition of human H4 cell growth in a cell viability assay.

[8] = test system: HCC1419; format: functional, cell-based, Homo sapiens; details: Homo sapiens, HCC1419;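 note: growth inhibition of human HCC1419 cells, read out as cell viability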
Description: SANGER: Inhibition of human HCC1419 cell growth in a cell viability assay.

[9] = test system: HOP-92; format: functional, cell-based, Homo sapiens; details: Homo sapiens, HOP-92;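 note: cell viability readout, with IC50 reflecting inhibition of HOP-92 cell growth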
Description: SANGER: Inhibition of human HOP-92 cell growth in a cell viability assay.

[10] = test system: HPAF-II; format: functional, cell-based, Homo sapiens; details: Homo sapiens, HPAF-II;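 note: growth inhibition of HPAF-II cells, read out with a cell viability assay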
Description: SANGER: Inhibition of human HPAF-II cell growth in a cell viability assay.

[11] = test system: HT1197; format: functional, cell-based, Homo sapiens, HT-1197; details: Homo sapiens, HT1197
Description: SANGER: Inhibition of human HT-1197 cell growth in a cell viability assay.

[12] = test system: HT-29; format: functional, cell-based, Homo sapiens; details: Homo sapiens, HT-29;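 note: growth inhibition of human HT-29 cells, read out by a cell viability assay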
Description: SANGER: Inhibition of human HT-29 cell growth in a cell viability assay.

[13] = test system: IST-MES1; format: functional, cell-based, Homo sapiens; details: Homo sapiens, IST-MES1;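 note: growth inhibition of IST-MES1 cells, measured with a cell viability assay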
Description: SANGER: Inhibition of human IST-MES1 cell growth in a cell viability assay.

[14] = test system: KNS-81-FD; format: functional, cell-based, Homo sapiens; details: Homo sapiens, KNS-81-FD;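 note: growth inhibition of KNS-81-FD cells, read out with a cell viability assay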
Description: SANGER: Inhibition of human KNS-81-FD cell growth in a cell viability assay.

[15] = test system: KYSE-70 cell line; format: functional, cell-based, Homo sapiens; details: Homo sapiens, KYSE-70;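 note: cell viability assay read-out, with IC50 expressing suppression of KYSE-70 cell growth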
Description: SANGER: Inhibition of human KYSE-70 cell growth in a cell viability assay.

[16] = test system: LB1047-RCC; format: functional, cell-based, Homo sapiens; details: Homo sapiens, LB1047-RCC;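 note: inhibition of cell growth, determined with a cell viability assay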
Description: SANGER: Inhibition of human LB1047-RCC cell growth in a cell viability assay.

[17] = test system: LB771-HNC; format: functional, cell-based, Homo sapiens; details: Homo sapiens, LB771-HNC;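 note: growth inhibition of LB771-HNC human cells, read out with a cell viability assay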
Description: SANGER: Inhibition of human LB771-HNC cell growth in a cell viability assay.

[18] = test system: MHH-NB-11; format: functional, cell-based, Homo sapiens; details: Homo sapiens, MHH-NB-11;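 note: growth inhibition of human MHH-NB-11 cells, read out by a cell viability assay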
Description: SANGER: Inhibition of human MHH-NB-11 cell growth in a cell viability assay.

[19] = test system: MIA PaCa-2; format: functional, cell-based, Homo sapiens; details: Homo sapiens, MIA PaCa-2;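 note: growth inhibition of MIA PaCa-2 cells, read out with a cell viability assay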
Description: SANGER: Inhibition of human MIA-PaCa-2 cell growth in a cell viability assay.

[20] = test system: MN-60; format: functional, cell-based; details: Homo sapiens;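 note: growth inhibition of the MN-60 cell line, determined with a cell viability assay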
Description: SANGER: Inhibition of human MN-60 cell growth in a cell viability assay.

[21] = test system: MOLT-16; format: functional, cell-based; details: Homo sapiens;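 note: growth inhibition of human MOLT-16 cells, read out with a cell viability assay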
Description: SANGER: Inhibition of human MOLT-16 cell growth in a cell viability assay.

[22] = test system: MPP-89; format: functional, cell-based, Homo sapiens; details: Homo sapiens, MPP-89;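 note: growth inhibition of human MPP-89 cells, read out with a cell viability assay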
Description: SANGER: Inhibition of human MPP-89 cell growth in a cell viability assay.

[23] = test system: MZ2-MEL; format: functional, cell-based, Homo sapiens; details: Homo sapiens, MZ2-MEL;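 note: growth inhibition of MZ2-MEL cells read out with a cell viability assay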
Description: SANGER: Inhibition of human MZ2-MEL cell growth in a cell viability assay.

[24] = test system: MeWo; format: functional, cell-based, Homo sapiens; details: Homo sapiens, MeWo;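 note: growth inhibition of MeWo cells, determined by a cell viability readout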
Description: SANGER: Inhibition of human Mewo cell growth in a cell viability assay.

[25] = test system: NB6; format: functional, cell-based, Homo sapiens; details: Homo sapiens, NB6;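 note: growth inhibition of NB6 cells, read out by a cell viability assay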
Description: SANGER: Inhibition of human NB6 cell growth in a cell viability assay.

[26] = test system: NCI-H1581; format: functional, cell-based, Homo sapiens; details: Homo sapiens, NCI-H1581;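 note: cell growth inhibition read out by a viability assay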
Description: SANGER: Inhibition of human NCI-H1581 cell growth in a cell viability assay.

[27] = test system: NCI-H1793; format: functional, cell-based, Homo sapiens; details: Homo sapiens, NCI-H1793;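 note: cell growth inhibition, read out by a cell viability assay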
Description: SANGER: Inhibition of human NCI-H1793 cell growth in a cell viability assay.

[28] = test system: NCI-H23; format: functional, cell-based, Homo sapiens; details: Homo sapiens, NCI-H23;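 note: cell viability assay measuring growth inhibition of NCI-H23 cells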
Description: SANGER: Inhibition of human NCI-H23 cell growth in a cell viability assay.

[29] = test system: NCI-H69; format: functional, cell-based; details: Homo sapiens;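 note: growth inhibition of the cell line, read out with a cell viability assay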
Description: SANGER: Inhibition of human NCI-H69 cell growth in a cell viability assay.

[30] = test system: NOMO-1; format: functional, cell-based; details: Homo sapiens;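 note: growth inhibition of human NOMO-1 cells measured by a cell viability assay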
Description: SANGER: Inhibition of human NOMO-1 cell growth in a cell viability assay.

[31] = test system: OCUB-M; format: functional, cell-based, Homo sapiens; details: Homo sapiens, OCUB-M;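 note: growth inhibition of the cancer cell line, read out through a cell viability assay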
Description: SANGER: Inhibition of human OCUB-M cell growth in a cell viability assay.

[32] = test system: OVCAR-4; format: functional, cell-based, Homo sapiens; details: Homo sapiens, OVCAR-4;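 note: growth inhibition of human OVCAR-4 cells, measured with a cell viability assay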
Description: SANGER: Inhibition of human OVCAR-4 cell growth in a cell viability assay.

[33] = test system: OVCAR-5; format: functional, cell-based, Homo sapiens; details: Homo sapiens, OVCAR-5;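 note: growth inhibition of human OVCAR-5 cells, read out with a cell viability assay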
Description: SANGER: Inhibition of human OVCAR-5 cell growth in a cell viability assay.

[34] = test system: P12-Ichikawa; format: functional, cell-based; details: Homo sapiens
[35] = test system: PA-1; format: functional, cell-based, Homo sapiens; details: Homo sapiens, PA-1;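 note: IC50 for suppression of PA-1 cell proliferation, determined with a cell viability read-out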
Description: SANGER: Inhibition of human PA-1 cell growth in a cell viability assay.

[36] = test system: SF-539; format: functional, cell-based, Homo sapiens; details: Homo sapiens, SF-539;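 note: Read-out is a cell viability assay, with IC50 reflecting inhibition of cell growth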
Description: SANGER: Inhibition of human SF539 cell growth in a cell viability assay.

[37] = test system: SK-MEL-2; format: functional, cell-based, Homo sapiens; details: Homo sapiens, SK-MEL-2;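 note: growth inhibition of human SK-MEL-2 cells measured with a cell viability assay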
Description: SANGER: Inhibition of human SK-MEL-2 cell growth in a cell viability assay.

[38] = test system: SK-MEL-28; format: functional, cell-based; details: Homo sapiens;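 note: growth inhibition of human SK-MEL-28 cells, read out with a cell viability assay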
Description: SANGER: Inhibition of human SK-MEL-28 cell growth in a cell viability assay.

[39] = test system: SK-MES-1; format: functional, cell-based, Homo sapiens; details: Homo sapiens, SK-MES-1;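 note: growth inhibition of human SK-MES-1 cells, read out with a cell viability assay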
Description: SANGER: Inhibition of human SK-MES-1 cell growth in a cell viability assay.

[40] = test system: SW837; format: functional, cell-based, Homo sapiens; details: Homo sapiens, SW837;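 note: growth inhibition of SW837 cells, determined with a cell viability assay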
Description: SANGER: Inhibition of human SW837 cell growth in a cell viability assay.

[41] = test system: SW872; format: functional, cell-based, Homo sapiens; details: Homo sapiens, SW872;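 note: growth inhibition of SW872 cells, read out by a viability assay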
Description: SANGER: Inhibition of human SW872 cell growth in a cell viability assay.

[42] = test system: TE-1; format: functional, cell-based, Homo sapiens; details: Homo sapiens, TE-1;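 note: growth inhibition of the human TE-1 cell line, read out with a cell viability assay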
Description: SANGER: Inhibition of human TE-1 cell growth in a cell viability assay.

[43] = test system: 5637; format: functional, cell-based, Homo sapiens; details: Homo sapiens
Description: SANGER: Inhibition of human 5637 cell growth in a cell viability assay.

[44] = test system: 647-V; format: functional, cell-based, Homo sapiens; details: Homo sapiens, 647-V;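 note: growth inhibition of 647-V cells, read out with a cell viability assay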
Description: SANGER: Inhibition of human 647-V cell growth in a cell viability assay.

[45] = test system: A253 cell line; format: functional, cell-based, Homo sapiens; details: Homo sapiens, A253;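 note: growth inhibition of A253 cells, read out with a cell viability assay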
Description: SANGER: Inhibition of human A253 cell growth in a cell viability assay.

[46] = test system: A3-KAW; format: functional, cell-based; details: Homo sapiens;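 note: growth inhibition of human A3-KAW cells, read out with a cell viability assay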
Description: SANGER: Inhibition of human A3-KAW cell growth in a cell viability assay.

[47] = test system: BT-474; format: functional, cell-based, Homo sapiens; details: Homo sapiens, BT-474
Description: SANGER: Inhibition of human BT-474 cell growth in a cell viability assay.

[48] = test system: CAL-54; format: functional, cell-based, Homo sapiens; details: Homo sapiens, CAL-54;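 note: growth inhibition of CAL-54 cells, read out by a viability measurement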
Description: SANGER: Inhibition of human CAL-54 cell growth in a cell viability assay.

[49] = test system: TGW; format: functional, cell-based; details: Homo sapiens;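 note: growth inhibition of human TGW cells, read out with a cell viability assay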
Description: SANGER: Inhibition of human TGW cell growth in a cell viability assay.

[50] = test system: UACC-893; format: functional, cell-based, Homo sapiens; details: Homo sapiens, UACC-893
Description: SANGER: Inhibition of human UACC-893 cell growth in a cell viability assay.

[51] = test system: VM-CUB-1; format: functional, cell-based; details: Homo sapiens;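 note: cell viability assay measuring growth inhibition of the human VM-CUB-1 cell line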
Description: SANGER: Inhibition of human VM-CUB-1 cell growth in a cell viability assay.

## CN(c1ncccc1CNc1nc(Nc2ccc3c(c2)CC(=O)N3)ncc1C(F)(F)F)S(C)(=O)=O [PF-00562271]
[1]
  IC50: > 2.56 µM
[2]
  IC50: > 2.56 µM
[3]
  IC50: > 2.56 µM
[4]
  IC50: > 2.56 µM
[5]
  IC50: > 2.56 µM
[6]
  IC50: > 2.56 µM
[7]
  IC50: > 2.56 µM
[8]
  IC50: > 2.56 µM
[9]
  IC50: 2.31 µM
[10]
  IC50: > 2.56 µM
[11]
  IC50: > 2.56 µM
[12]
  IC50: > 2.56 µM
[13]
  IC50: > 2.56 µM
[14]
  IC50: > 2.56 µM
[15]
  IC50: > 2.56 µM
[16]
  IC50: > 2.56 µM
[17]
  IC50: > 2.56 µM
[18]
  IC50: 2.13 µM
[19]
  IC50: > 2.56 µM
[20]
  IC50: > 2.56 µM
[21]
  IC50: > 2.56 µM
[22]
  IC50: > 2.56 µM
[23]
  IC50: > 2.56 µM
[24]
  IC50: > 2.56 µM
[25]
  IC50: > 2.56 µM
[26]
  IC50: > 2.56 µM
[27]
  IC50: > 2.56 µM
[28]
  IC50: > 2.56 µM
[29]
  IC50: > 2.56 µM
[30]
  IC50: > 2.56 µM
[31]
  IC50: > 2.56 µM
[32]
  IC50: > 2.56 µM
[33]
  IC50: > 2.56 µM
[34]
  IC50: > 2.56 µM
[35]
  IC50: > 2.56 µM
[36]
  IC50: > 2.56 µM
[37]
  IC50: > 2.56 µM
[38]
  IC50: > 2.56 µM
[39]
  IC50: > 2.56 µM
[40]
  IC50: > 2.56 µM
[41]
  IC50: > 2.56 µM
[42]
  IC50: > 2.56 µM
[43]
  IC50: > 2.56 µM
[44]
  IC50: > 2.56 µM
[45]
  IC50: > 2.56 µM
[46]
  IC50: > 2.56 µM
[47]
  IC50: > 2.56 µM
[48]
  IC50: > 2.56 µM
[49]
  IC50: > 2.56 µM
[50]
  IC50: > 2.56 µM
[51]
  IC50: > 2.56 µM

## O=c1cc(-c2cccc3c2Sc2ccccc2S3)oc(N2CCOCC2)c1 [KU-55933]
[1]
  IC50: > 10 µM
[2]
  IC50: > 10 µM
[3]
  IC50: > 10 µM
[4]
  IC50: > 10 µM
[5]
  IC50: > 10 µM
[6]
  IC50: > 10 µM
[7]
  IC50: > 10 µM
[8]
  IC50: > 10 µM
[9]
  IC50: > 10 µM
[10]
  IC50: > 10 µM
[11]
  IC50: > 10 µM
[12]
  IC50: > 10 µM
[13]
  IC50: > 10 µM
[14]
  IC50: > 10 µM
[15]
  IC50: > 10 µM
[16]
  IC50: > 10 µM
[17]
  IC50: > 10 µM
[18]
  IC50: > 10 µM
[19]
  IC50: > 10 µM
[20]
  IC50: > 10 µM
[21]
  IC50: > 10 µM
[22]
  IC50: > 10 µM
[23]
  IC50: > 10 µM
[24]
  IC50: > 10 µM
[25]
  IC50: > 10 µM
[26]
  IC50: > 10 µM
[27]
  IC50: > 10 µM
[28]
  IC50: > 10 µM
[30]
  IC50: > 10 µM
[31]
  IC50: > 10 µM
[32]
  IC50: > 10 µM
[33]
  IC50: > 10 µM
[34]
  IC50: > 10 µM
[35]
  IC50: > 10 µM
[36]
  IC50: > 10 µM
[37]
  IC50: > 10 µM
[38]
  IC50: > 10 µM
[39]
  IC50: > 10 µM
[40]
  IC50: > 10 µM
[41]
  IC50: > 10 µM
[42]
  IC50: > 10 µM
[43]
  IC50: > 10 µM
[44]
  IC50: > 10 µM
[45]
  IC50: > 10 µM
[46]
  IC50: > 10 µM
[47]
  IC50: > 10 µM
[48]
  IC50: > 10 µM
[49]
  IC50: > 10 µM
[50]
  IC50: > 10 µM
[51]
  IC50: > 10 µM

## COc1cc(F)c(F)c(Nc2ccc(I)cc2F)c1NS(=O)(=O)C1(CC(O)CO)CC1 (stereo unspecified)
[2]
  IC50: 3.81 µM
[3]
  IC50: > 5 µM
[4]
  IC50: > 5 µM
[5]
  IC50: > 5 µM
[6]
  IC50: > 5 µM
[7]
  IC50: 3.35 µM
[8]
  IC50: > 5 µM
[9]
  IC50: 0.683 µM
[10]
  IC50: 1.02 µM
[11]
  IC50: > 5 µM
[12]
  IC50: 0.182 µM
[13]
  IC50: > 5 µM
[14]
  IC50: 2.41 µM
[15]
  IC50: > 5 µM
[16]
  IC50: 1.09 µM
[17]
  IC50: > 5 µM
[18]
  IC50: 1.06 µM
[19]
  IC50: 2.82 µM
[20]
  IC50: > 5 µM
[21]
  IC50: > 5 µM
[22]
  IC50: > 5 µM
[23]
  IC50: 0.319 µM
[24]
  IC50: 0.753 µM
[25]
  IC50: > 5 µM
[26]
  IC50: > 5 µM
[27]
  IC50: > 5 µM
[28]
  IC50: > 5 µM
[29]
  IC50: > 5 µM
[30]
  IC50: 0.137 µM
[31]
  IC50: > 5 µM
[32]
  IC50: > 5 µM
[33]
  IC50: 0.234 µM
[34]
  IC50: 1.78 µM
[35]
  IC50: > 5 µM
[36]
  IC50: 2.21 µM
[37]
  IC50: 0.101 µM
[38]
  IC50: 0.115 µM
[39]
  IC50: 1.35 µM
[40]
  IC50: > 5 µM
[41]
  IC50: 0.774 µM
[42]
  IC50: > 5 µM
[43]
  IC50: > 5 µM
[44]
  IC50: > 5 µM
[45]
  IC50: 3.32 µM
[46]
  IC50: > 5 µM
[47]
  IC50: > 5 µM
[48]
  IC50: > 5 µM
[49]
  IC50: > 5 µM
[50]
  IC50: > 5 µM
[51]
  IC50: 3.65 µM
